# Measured values as given in PMC12040169 (PLOS Biology, 2025).
# Assay: in vitro
# Conditions: human, hela cells, % viability
row,Compound,"viability at 28.5 h, 10 µM [%]"
1,O=C(Cn1c(-c2cccs2)cc2cccnc21)NCc1cccnc1 [CBK282457],105
2,O=C(Cn1c(-c2cccs2)cc2cccnc21)N1CCC(O)CC1 [CBK282458],113
3,Cc1cc(C(=O)NC2CCCOC2)c2cccc(Cl)c2n1 (centres unmarked) [CBK282459],95.3
4,Cc1cc(C(=O)NCCn2ccnc2C)c2cccc(Cl)c2n1 [CBK282460],95.6
5,CNC(=O)c1ccc(-n2ccnc2)c(-n2cccc2)c1 [CBK282461],80.8
6,CCCc1cc(CNC(=O)c2cnn(-c3ccc(F)cc3)c2)on1 [CBK282463],86.6
7,CCCc1cc(C(=O)NC2(CN3CCCC3)CCCCC2)[nH]n1 [CBK282464],98.1
8,CCCc1cc(C(=O)NC2CCN(Cc3cccc(F)c3)CC2)[nH]n1 [CBK282465],100
9,CCCN1CCC(CNC(=O)c2cnn(-c3ccc(F)cc3)c2)CC1 [CBK282466],112
10,CCCc1cc(C(=O)NC(C)(C)CN2CCCC(C)C2)[nH]n1 (centres unmarked) [CBK282467],89.1
11,Cc1ccccc1C1(O)CCN(CC(O)c2ccc(F)cc2)CC1 (centres unmarked) [CBK282471],87.7
12,Cc1nc2ccc(C(=O)NCC3CCCN(C(C)C)C3)cc2[nH]1 (centres unmarked) [CBK282475],90
13,Cc1nc2ccc(C(=O)NCCCc3ccccn3)cc2s1 [CBK282478],88.2
14,Cc1ccc(C2(CN3CCN(CC4CCOC4)CC3)CC2)cc1 (centres unmarked) [CBK282479],86.1
15,Cc1ccc(CN(CCCN(C)C)Cc2nccn2C)o1 [CBK282481],105
16,C=C(C)Cn1nc(C)c(CN(C)CCN2CCCCC2)c1C [CBK282483],88.7
17,Cn1cc(CCCC(=O)NC2CCCOC2)c2ccccc21 (centres unmarked) [CBK282486],81.8
18,CC1CCN(CC(O)c2ccc3c(c2)CCCN3C(=O)C2CC2)CC1 (centres unmarked) [CBK282488],96.9
19,OC(CN1CCC(O)(c2ccc(F)cc2)CC1)c1ccccc1 (centres unmarked) [CBK282489],104

row,Compound,"viability at 28.5 h, 10 µM [%]"
1,OC(CN1CCC(O)(c2ccccc2F)CC1)c1ccccc1 (centres unmarked) [CBK282490],107
2,Cc1ccccc1C1(O)CCN(CC(O)c2ccccc2)CC1 (centres unmarked) [CBK282491],83.7
3,OC(CN1CCC(O)(c2ccccc2F)CC1)c1ccc(F)cc1 (centres unmarked) [CBK282492],87.2
4,COc1cccc(CN(Cc2ccco2)Cc2cnc(C)n2C)c1 [CBK282494],93.6
5,COc1cccc(CN(Cc2ncc[nH]2)Cc2ccco2)c1 [CBK282496],98.7
6,O=C(NCCC(c1ccccc1)c1ccco1)C1CCCN1 (centres unmarked) [CBK282499],85
7,CCc1c(C(=O)NCc2cc(C3CC3)[nH]n2)[nH]c2ccc(F)cc12 [CBK282501],76.3
8,CC(=O)c1cn(CCC(=O)NC2CCCN(C)C2)c2ccccc12 (centres unmarked) [CBK282503],81.3
9,Cc1cccc(C2(O)CCN(CC(O)c3ccc(F)cc3)CC2)c1 (centres unmarked) [CBK282504],96.6
10,CCc1[nH]c2ccc(C(=O)NCCn3ccnc3C)cc2c1C [CBK282505],96.4
11,Cc1cccc(C2(O)CCN(C(=O)CCCc3ccncc3)CC2)c1 [CBK282506],111
12,Cn1c(CCC(=O)Nc2c[nH]c3ccccc23)nc2ccccc21 [CBK282507],85.9
13,CCOC(=O)C(C)NC(=O)c1ccc2nc(C)sc2c1 (centres unmarked) [CBK282508],85.5
14,Cc1c(C(=O)NCC[S+](C)[O-])oc2c(C)cccc12 (centres unmarked) [CBK282511],88.8
15,Cc1nn(-c2cccc(C(=O)NC3CCCOC3)c2)c(C)c1Cl (centres unmarked) [CBK282512],83.6
16,COc1ccccc1CCCNC(=O)c1csc(C(C)=O)c1 [CBK282513],98.8
17,CC(=O)c1cc(C(=O)NC(c2ccccc2)c2cccnc2)cs1 (centres unmarked) [CBK282514],125
18,COc1ccccc1CC(C)NC(=O)c1csc(C(C)=O)c1 (centres unmarked) [CBK282517],114
19,Cc1ccn(CCNC(=O)c2ccc3c(C)c(C)[nH]c3c2)n1 [CBK282519],101
